In PMC10951066, “The self-reactive FVIII T cell repertoire in healthy individuals relies on a short set of epitopes and public clonotypes” (Frontiers in Immunology, 2024):

How the values were obtained:
[1] = test system: CD4 T cells from healthy donors; assay: Large-scale CD4 T cell epitope mapping by IFN-γ ELISPOT (16 donors); format: cell-based, human; settings: for nb positive T cell lines: across all 16 donors; for cumulative donor coverage (%): cumulative over peptides ranked by donor coverage; for Donor coverage ( %): of 16 donors; for responding donors: of 16 healthy donors, individual peptide 10 µg/ml; for response intensity ( %): percentage of 872 FVIII-specific T cell lines
Excerpt: PBMCs were purified from the whole blood of anonymous healthy donors, who gave informed consent (Etablissement Français du Sang, Rungis, France), using Ficoll-Paque®. Monocyte-derived dendritic cells (DCs) were produced from cells isolated using Percoll gradient by 5 days of culture in AIM-V medium (Invitrogen, Villebon-sur-Yvette, France) supplemented with 1,000 U/ml recombinant human (rh) IL-4 and rhGM-CSF (both from R&D Systems, Lille, France). Mature DCs were produced by two supplementary days of culture in the presence of LPS (1 µg/ml) and R848 (10µg/ml). CD4 T cells were isolated from autologous PBMCs by positive selection using magnetic labeling with anti-CD4 mAbs conjugated to magnetic microbeads followed by magnetic cell sorting, as recommended by the manufacturer (Miltenyi Biotec, Bergisch Gladbach, Germany). Immature DCs were loaded overnight at 37 °C with either 0.2 µM of rFVIII, 0.2 µM of ovalbumin, or 0.25 µM of KLH in 96-well U-bottom plates, while mature DCs were used for FVIII peptides (10 ug/ml). CD4 T cell lines were generated in vitro in IMDM (Invitrogen) supplemented with 10% human serum, 0.24 mM glutamine, 0.55 mM asparagine, 1.5 mM arginine (all amino acids from Sigma-Aldrich), 50 U/mL penicillin/50 μg/mL of streptomycin (Invitrogen), 20 IU/mL human IL-2, and 17 IU/ml human IL-7 (premium-grade; Miltenyi Biotec) by three once-per-week rounds of stimulation of CD4 T cells (200,000 per well) with autologous DCs (20,000 per well). 10,000 lymphocytes were collected at day 19 from each T cell line (expanded T cells contained in one well) and their specificity was assessed by using IFN-g ELISPOT.
The T cell lines and APCs were plated at equal number for both stimulated and unstimulated control conditions. […] The spot number was determined by using the ELISPOT Reader System (Autoimmun Diagnostika, Ebinger, Germany). HLA restriction was assessed using monoclonal antibodies (10 μg/ml) specific to HLA-DP (B7/21), HLA-DQ (SPVL3), or HLA-DR (L243).
Based on the T cell epitope prediction software NetMHCpan4.0 ([23]), we selected 63 20-mer peptides that are predicted for their ability to bind promiscuously, with a percentile score below 10%, at least four HLA class II molecules from a selection of 15 preponderant HLA-DR alleles in our panel (as shown in ST1). […] A total of 16 healthy donors with unrelated HLA typing (ST2) were used as sources of T cells to identify FVIII-specific CD4 T cell epitopes. Specific T cell lines were generated by in vitro T cell culture using FVIII and KLH. The peptide specificity of the T cell lines raised against FVIII was assessed by two independent IFN-γ ELISPOT using peptide pools and individual peptides. […] Furthermore, four independent healthy donors were used as sources of T cells to characterize the HLA restriction and to assess the reactivity of T cell lines generated with the 18 peptides toward rFVIII. T cell lines were amplified in vitro for 28 days through stimulation with the pool of 18 peptides and then tested through IFN-γ ELISPOT.

HLA-DRB1*0401 = HLA-DRB1*0401 (Homo sapiens, UniProt P01903+P01911, A100K/A169T/F76Y/I96L/K127E/L162R/M171V/N62H/P40V/Q125Y/R42H/S133A/S149N/S66Y/V115G/V209L/W38E); assay: Peptide-MHCII competition binding assay; settings: competition ELISA, pH 5.9, peptide 90.000nM – 0.9nM, HLA-DRB1 30 nM, biotinylated peptide 15nM, duplicate wells; ratios below 10 = good binding; reference peptide […]
Method: (§1) Quantitative peptide-MHCII competition binding assays were carried out to determine binding avidities of the 18 20-mer FVIII peptides to 6 HLA-DRB1. Data are presented as ratio between reference peptide IC50/FVIII-peptide IC50 tested. Briefly, non-biotinylated FVIII peptides have been diluted at a concentration of 20 mM in DMSO. 10-µl aliquots of serially diluted (90.000nM – 0.9nM in n-Octyl b-D-Glucopyranoside, 2.5 mg/ml in 1x phosphate buffer, pH 5.9) of non-biotinylated FVIII peptides, were added to duplicate wells of 96-well polypropylene plates. Serially diluted non-FVIII reference peptides known to bind to the specific HLA-DRB1 were added to separate wells as positive controls. Next, the biotinylated peptide at a concentration of 2mM was use to prepare 1000-fold pre-dilution to reach a final concentration of 15nM. The HLA-DRB1 proteins were diluted to 30 nM in n-Octyl β-D-Glucopyranoside, 2.5 mg/ml in 1x phosphate buffer, pH 5.9. […] SA-HRP (diluted 5000x in 1xPBS 0.1% Tween20) was added to each well. The plates were covered and incubated at room temperature for 60 min […] and washed. TMB (100 μl/well) was then added, and the plates were incubated at room temperature for 15-30 min. ELISA stopping solution (0.5M H2SO4) was added and then read on a FLUOstar OPTIMA fluorometer. Sigmoidal binding curves were simulated and IC50 values calculated for the FVIII peptides, based on their competition with the reference peptides for each HLA-DRB1. Data were reported as the ratio between the values of the tested peptide and of the reference peptide. Ratios below 10 correspond to good biding affinity.

HLA-DRB1*0701 = HLA-DRB1*0701 (Homo sapiens, UniProt P01903+P01911, A100R/A102G/A103Q/D57E/D86V/E43K/F76Y/K127E/L162R/M171V/P40G/Q125H/Q99D/R33Q/R42Y/R54Q/S133A/S66F/T210M/V115G/Y107V/Y59L/Y89S); assay: Peptide-MHCII competition binding assay; settings: competition ELISA, pH 5.9, peptide 90.000nM – 0.9nM, HLA-DRB1 30 nM, biotinylated peptide 15nM, duplicate wells; ratios below 10 = good binding; reference peptide PVDLHAFLSQAVFS
Method: as §1

HLA-DRB1*1101 = HLA-DRB1*1101 (Homo sapiens, UniProt P01903+P01911, A100R/A169T/A87E/I96F/K41T/L162R/M171V/P40S/Q125H/Q178H/Q39Y/Q99D/R42S/S66Y/T262R/V115G/W38E); assay: Peptide-MHCII competition binding assay; settings: competition ELISA, pH 5.9, peptide 90.000nM – 0.9nM, HLA-DRB1 30 nM, biotinylated peptide 15nM, duplicate wells; ratios below 10 = good binding; reference peptide […]
Method: as §1

HLA-DRB1*0101 = HLA-DRB1*0101 (Homo sapiens, UniProt P01903+P01911, A100R/D57E/F55L/F60I/F76Y/I96L/L162R/M171V/P40L/Q125E/R42F/V115G/Y59C); assay: Peptide-MHCII competition binding assay; settings: competition ELISA, pH 5.9, peptide 90.000nM – 0.9nM, HLA-DRB1 30 nM, biotinylated peptide 15nM, duplicate wells; ratios below 10 = good binding; reference peptide […]
Method: as §1

| Sequence | nb positive T cell lines [1] | cumulative donor coverage (%) [1] [%] | Donor coverage ( %) [1] [%] | responding donors [1] | response intensity ( %) [1] | Ratio IC50 DRB1*0401 (HLA-DRB1*0401) | Ratio IC50 DRB1*0701 (HLA-DRB1*0701) | Ratio IC50 DRB1*1101 (HLA-DRB1*1101) | Ratio IC50 DRB1*0101 (HLA-DRB1*0101) |
| --- | --- | --- | --- | --- | --- | --- | --- | --- | --- |
| ATRRYYLGAVELSWDYMQSD [P20-39, 20-mer FVIII peptide, A1 domain] | 43 | 81 | 62 | 10 | 4,93% | 1.7 | 0.5 | 0.8 | – |
| DHLFNIAKPRPPWMGLLGPT [P75-94, 20-mer FVIII peptide, A1 domain] | 38 | 81 | 69 | 11 | 4,36% | 27 | 1 | 1.8 | 747 |
| HPQSWVHQIALRMEVLGCEA [P2328-2347, 20-mer FVIII peptide, C2 domain] | 23 | – | 56 | 9 | 2,64% | 1240 | 1 | 2 | 1.6 |
| INGYIMDTLPGLVMAQDQRI [P1940-1959, 20-mer FVIII peptide, A3 domain] | 14 | 94 | 56 | 9 | 1,61% | 0.1 | 1.1 | 0.5 | 6 |
| KARLHLQGRSNAWRPQVNNP [P2226-2245, 20-mer FVIII peptide, C2 domain] | 12 | – | 56 | 9 | 1,38% | 3 | 0.05 | 1.9 | 0.2 |
| KEPFSWIKVDLLAPMIIHGI [P2084-2103, 20-mer FVIII peptide, C1 domain] | 20 | 94 | 56 | 9 | 2,29% | 1.9 | – | – | – |
| KKEEYKMALYNLYPGVFETV [P1986-2005, 20-mer FVIII peptide, A3 domain] | 18 | – | 50 | 8 | 2,06% | 622.5 | 0.2 | – | 182 |
| KLARLHYSGSINAWSTKEPF [P2068-2087, 20-mer FVIII peptide, C1 domain] | 20 | – | 50 | 8 | 2,29% | 0.2 | 0.35 | 4.6 | 70.5 |
| LGQFLLFCHISSHQHDGMEA [P322-341, 20-mer FVIII peptide, A1 domain] | 27 | 81 | 62 | 10 | 3,10% | – | 0.6 | 0.05 | – |
| LLTRYLRIHPQSWVHQIALR [P2320-2339, 20-mer FVIII peptide, C2 domain] | 10 | – | 50 | 8 | 1,15% | 76 | 0.05 | 1 | 1 |
| LSHVDLVKDLNSGLIGALLV [P178-197, 20-mer FVIII peptide, A1 domain] | 19 | 81 | 56 | 9 | 2,18% | 0.05 | 0.4 | 0.1 | 1.7 |
| PPIIARYIRLHPTHYSIRST [P2161-2180] | 21 | – | 56 | 9 | 2,41% | 5.6 | 0.05 | 0.4 | 1 |
| RHYFIAAVERLWDYGMSSSP [P1715-1734, 20-mer FVIII peptide, A3 domain] | 16 | – | 50 | 8 | 1,83% | 138 | 1 | – | 20.4 |
| SLYISQFIIMYSLDGKKWQT [P2114-2133, 20-mer FVIII peptide, C1 domain] | 10 | – | 50 | 8 | 1,15% | 0.6 | 0.1 | 0.4 | 0.2 |
| VHSIFLEGHTFLVRNHRQAS [P285-304, 20-mer FVIII peptide, A1 domain] | 44 | 75 | 75 | 12 | 5,05% | 57.6 | 2 | 0.0 | 163 |
